Reference: PMC6690489 (Bioorganic & medicinal chemistry letters, 2018)

Key:
[1] = predicted hepatic clearance; type: in vitro ADME; settings: rat
[2] = test system: CYP450; test: CYP450 inhibition profile; type: in vitro ADME
[3] = target: T1, human M4 (Homo sapiens, UniProt P08173); test: calcium mobilization human M4/Gqi5 assay with EC20 acetylcholine; type: cell-based
T1 sequence (P08173 1-479): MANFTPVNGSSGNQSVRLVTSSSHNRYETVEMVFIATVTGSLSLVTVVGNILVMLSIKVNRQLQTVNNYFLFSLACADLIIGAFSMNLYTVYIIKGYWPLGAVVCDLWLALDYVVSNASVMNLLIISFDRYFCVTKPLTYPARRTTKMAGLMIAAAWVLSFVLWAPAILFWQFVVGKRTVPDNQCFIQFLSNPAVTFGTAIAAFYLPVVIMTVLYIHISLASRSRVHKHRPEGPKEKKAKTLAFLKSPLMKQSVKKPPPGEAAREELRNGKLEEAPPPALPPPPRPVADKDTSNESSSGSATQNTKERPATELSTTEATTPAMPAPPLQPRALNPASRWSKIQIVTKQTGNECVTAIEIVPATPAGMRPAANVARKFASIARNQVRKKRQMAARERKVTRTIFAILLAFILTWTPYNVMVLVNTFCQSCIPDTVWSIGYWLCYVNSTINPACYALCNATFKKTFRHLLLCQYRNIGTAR

predicted hepatic clearance CLhep [1] [mL/min/kg] | IC50 [2] [nM] | SMILES | other results
> 67 | – | Cc1nc2sc3c(NCc4ccco4)nn(C)c3c2c(C)c1Cl [27e] | –
– | > 30000 | Cc1nnc2sc3c(NCc4ccc(S(C)(=O)=O)c(F)c4)nn(C)c3c2c1C [30b] | –
67.8 | – | COc1ccc(CNc2nn(C)c3c2sc2nnc(C)c(C)c23)cc1 [30a] | EC50 [3]: 44 nM

Further lines, the molecule ahead of its results:

SMILES | predicted hepatic clearance CLhep [1] [mL/min/kg] | IC50 [2] [nM] | other results
COc1ccc(CNc2n[nH]c3c2sc2nc(C)cc(C)c23)cc1 [22a] | 66 | < 5000 | –
Cc1nc2sc3c(NCC4CC4)nn(C)c3c2c(C)c1Cl [27d] | > 67 | – | –
COc1ccc(CNC(=O)c2cc3c(C)c(C)nnc3s2)cc1F [18a] | – | – | loss of potency relative to parent 4 ([3]; des-amino analog vs NH2-bearing 4): ~ 18 fold
